In article PMC1805503 (Beilstein Journal of Organic Chemistry, 2007):

Experiments:
[1] = target: T1, human KOR (Homo sapiens, UniProt P41145); assay: biochemical; details: read-out: Emax ± SEM
T1 construct: expressed in transfected cells; host or cells: CHO cells expressing hKOR (membranes), according to the assay names of the earlier reading

[2] = system: KOR; set-up: method as in PMID 14718611; details: [3H]bremazocine as radiolabeled ligand; cited from earlier work

T1 sequence (P41145 whole entry): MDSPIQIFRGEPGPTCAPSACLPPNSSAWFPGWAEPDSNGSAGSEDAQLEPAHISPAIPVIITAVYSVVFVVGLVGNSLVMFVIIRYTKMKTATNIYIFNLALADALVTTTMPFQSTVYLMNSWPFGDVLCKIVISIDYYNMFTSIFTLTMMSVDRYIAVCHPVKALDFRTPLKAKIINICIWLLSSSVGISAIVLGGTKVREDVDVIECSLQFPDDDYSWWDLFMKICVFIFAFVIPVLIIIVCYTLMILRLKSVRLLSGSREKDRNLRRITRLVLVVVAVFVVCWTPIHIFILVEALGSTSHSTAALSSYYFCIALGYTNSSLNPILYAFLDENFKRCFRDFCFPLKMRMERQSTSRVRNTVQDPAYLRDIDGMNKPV

SMILES	Emax [1]	activity at the KOR (in words), early report [2]
COC(=O)C1CC(O)C(=O)C2C1(C)CCC1C(=O)OC(c3ccoc3)CC12C (stereo not drawn) [Compound 2b, 8-epi-salvinorin B]	90 ± 2%	
COC(=O)[C@@H]1C[C@H](O)C(=O)[C@H]2[C@@]1(C)CC[C@H]1C(=O)O[C@H](c3ccoc3)C[C@]21C [Compound 2a, salvinorin B]		inactive
